Values of other authors as cited in patent US6340756B1, “Process for preparing a 2-(2-amino-1, 6-dihydro-6-oxo-purin-9-yl)methoxy-1,3-propanediol derivative” (Syntex (U.S.A.) Inc., priority 1996, dated 2002).

Legend:
[1] = rats, urinary recovery of acyclovir, Beauchamp et al. 1992
[2] = EP 0 694 547 A
[3] = EP 0 694 547 A; remark: listed apart in the source
[4] = EP 0 308 065 A2

Row | SMILES | amount of the parent drug (acyclovir) in the urine compared with acyclovir itself [1] | further results
1 | CC[C@H](N)C(=O)OCCOCn1cnc2c(=O)[nH]c(N)nc21 | greater amounts of the parent drug in the urine than acyclovir itself | –
2 | C[C@H](N)C(=O)OCCOCn1cnc2c(=O)[nH]c(N)nc21 [L-alanyl] | greater amounts of the parent drug in the urine than acyclovir itself | –
3 | CCC(C)C(N)C(=O)OCCOCn1cnc2c(=O)[nH]c(N)nc21 (racemic) [DL-isoleucyl] | greater amounts of the parent drug in the urine than acyclovir itself | –
4 | CC(C)C(N)C(=O)OCCOCn1cnc2c(=O)[nH]c(N)nc21 (racemic) [D,L-valyl] | greater amounts of the parent drug in the urine than acyclovir itself | –
5 | CSCC[C@H](N)C(=O)OCCOCn1cnc2c(=O)[nH]c(N)nc21 [L-methionyl] | greater amounts of the parent drug in the urine than acyclovir itself | –
6 | CC[C@H](C)[C@H](N)C(=O)OCCOCn1cnc2c(=O)[nH]c(N)nc21 [L-isoleucyl] | greater amounts of the parent drug in the urine than acyclovir itself | –
7 | CC(C)[C@@H](N)C(=O)OCC(CO)OCn1cnc2c(O)nc(N)nc21 (stereo partly drawn) [2-(2-amino-1,6-dihydro-6-oxo-purin-9-yl)methoxy-3-hydroxy-1-propyl-L-valinate] | – | toxicity [2]: low toxicity; oral absorption [3]: improved oral absorption
8 | CC(C)[C@H](N)C(=O)OCCOCn1cnc2c(=O)nc(N)[nH]c21 [L-valyl] | greater amounts of the parent drug in the urine than acyclovir itself | rank as prodrug among the esters investigated ([1]; eighteen amino acid esters): best prodrug
9 | CC(C)[C@H](N)C(=O)OCCOCn1cnc2c(=O)nc(N)[nH]c21 [valine ester of acyclovir] | – | absorption from the gut after oral administration, compared with other esters and acyclovir [4]: large increase in absorption
10 | Nc1nc2c(ncn2COCCOC(=O)C2CCCN2)c(=O)[nH]1 [L-prolyl] | greater amounts of the parent drug in the urine than acyclovir itself | –
11 | NCC(=O)OCCOCn1cnc2c(=O)[nH]c(N)nc21 [glycyl] | greater amounts of the parent drug in the urine than acyclovir itself | –
12 | CC(N)C(=O)OCCOCn1cnc2c(=O)[nH]c(N)nc21 (racemic) [D,L-alanyl] | greater amounts of the parent drug in the urine than acyclovir itself | –
